# Laboratory results: patent US11753626B2, “Tumor cell suspension cultures and related methods” (Beijing Percans Oncology Co., Ltd., priority 2016, dated 2023)
# Test system: tumor cell clusters from colorectal cancer patients
# Experiment: ex vivo drug sensitivity assay of tumor cell clusters in suspension culture (Edu incorporation)
# Format: cell-based, human
# Conditions: FIG. 4; test conditions of FIG. 3B; short-term suspension culture in defined growth medium
# Method: Briefly, the non-tumor tissues and the necrotic fractions were carefully removed from the tumor specimen. The tumor tissues were cut into small pieces less than 1 mm in diameter using scissors. Minced tumor fractions were transferred into a sterile 100-ml triangle glass flask loaded with a magnet stir bar. A 10-15 ml digestion media containing 0.25 U/ml Liberase DH was added into the minced tumor tissues to start enzyme digestion. The enzyme mixture was incubated at 37° C. for 1-2 hours with moderate stirring. The partially digested tumor cell clusters were filtered through a 100-μm cell retainer. The filtrates were re-filtered through a 40-μm cell restrainer. The tumor cell clusters retained on the 40-μm cell restrainer was collected, wash twice with HBSS, then re-suspended in a defined growth media supplemented with cell growth factors and small molecule inhibitors.
# For ex vivo drug sensitivity assays, the tumor cell clusters were recovered in a defined growth medium overnight. The defined growth medium was StemPro hESC SFM supplement with Nicotinamide, Wnt3A, Noggin, R-spondin-1, and Y27632. The tumor cell clusters were then exposed to drug (e.g., Docetaxel at 2 μM (Cmax)) for 24 hours before the drug was washed away. Following exposure with drug, the tumor cell clusters were labeled with 5-ethynyl-2′-deoxyuridine (Edu) to assess the tumor cell proliferation rates. The labeling started at 48 hours after the drug exposure and continued for 96 hours. In the control group, tumor cell clusters received no drug exposure with media change, but were similarly labeled with Edu. The labeled tumor cell clusters were dissociated into single cells and fixed. The fixed cells were stained with Hoechst 33342 in PBS containing 0.2% Triton X-100 overnight at 4° C. The incorporated Edu was detected by Click-iT reaction where fixed cells were incubated with a reaction mixture containing 1× Click-iT Edu reaction buffer, CuSO4, and azide-conjugated Alexa Fluor dye in the dark. The stained cells were washed with PBS before being distributed into a black wall plate for image acquisition and analysis.
# For image acquisition and analysis, the stained tumor cells were imaged by a high-content screening (HCS) platform (Thermo Scientific Cellomics ArrayScan XTi HCS reader). The 10× objective was used to collect images. Twenty-five fields were imaged for each well, and more than 3000 cells were captured for the analysis. From the images two fluorescent signals were obtained from the HCS reader. Blue fluorescent signals recorded nucleus signals stained with Hoechst 33342, and green fluorescent signal detected the Edu incorporated in newly synthesized DNA. The Edu positive subpopulation cells percentage was calculated as percent of the total cell counts. […]
row,Structure (SMILES),growth of tumor cell clusters (inhibition by tested drug)
1,C#Cc1cccc(Nc2ncnc3cc(OCCOC)c(OCCOC)cc23)c1 [erlotinib],not completely inhibited
2,C[C@@H](Oc1cc(-c2cnn(C3CCNCC3)c2)cnc1N)c1c(Cl)ccc(F)c1Cl [crizotinib],not completely inhibited
3,O=C1[O][Pt]2([NH][C@@H]3CCCC[C@H]3[NH]2)[O]C1=O [oxaliplatin],not completely inhibited
4,CNC(=O)c1cc(Oc2ccc(NC(=O)Nc3ccc(Cl)c(C(F)(F)F)c3)cc2)ccn1 [sorafenib],not completely inhibited
